Data: patent publication US20140206763A1, “PHENYLBUTYRATE FOR TREATMENT OF SPORADIC INCLUSION-BODY MYOSITIS AND DISORDERS RELATING TO AUTOPHAGY IMPAIRMENT OR AMYLOID BETA 42 ACCUMULATION” (UNIVERSITY OF SOUTHERN CALIFORNIA, priority 2013, published 2014)
“Also recorded” adds a separate entry of the source.

Legend:
[1] = patients with urea cycle-disorders, compared with NaPB; cited from earlier work
control CHMFs = assay: Morphology and muscle-fiber viability of control CHMFs; assay type: cell-based, human; details: 15 mM NaPB
Protocol: (§1) Primary cultures of normal human muscle were established as routinely performed in our laboratory (Askanas and Engel, 1992) from archived satellite cells of portions of diagnostic muscle biopsies from patients who, after all tests were performed, were considered free of muscle disease. Each experiment was performed on 3-9 different culture sets, each established from satellite cells derived from a different muscle biopsy. 10-15 days after myoblast fusion, the well-differentiated myotubes were, as previously described (Nogalska et al., 2012; Nogalska et al., 2010b), exposed for 24 hours to either: a) chloroquine (Chl), a lysosomotropic agent raising lysosomal pH and inhibiting activities of cathepsins (Shacka et al., 2006) (50 μM, Sigma-Aldrich, St. Louis, Mo.); or b) bafilomycin Al (Baf), an inhibitor of lysosomal V-ATPase causing an increase in lysosomal pH and inhibiting activities of cathepsins (Shacka et al., 2006) (25 nM, Sigma-Aldrich). CHMFs were also treated with NaPB (Tocris/R&D Systems, Minneapolis, Minn.) in doses ranging from 1-15 mM, used either alone or together with chloroquine or bafilomycin.

p62 = p62 immunoblot with densitometric analysis in CHMFs; assay type: cell-based, human; details: for increase of p62: exposure to inhibitor alone, vs control CHMFs
Protocol: as §1
(§2) CHMFs were harvested in RIPA buffer and immunoblotted, as previously detailed (D'Agostino et al., 2011; Nogalska et al., 2012; Nogalska et al., 2010b) using antibodies against LC3 (1:500, Novus Biologicals, Littleton, Colo.), p62 (1:100, A-6, Santa Cruz Biotechnology) or NBR1 (1:700). Aβ42 oligomers were studied using 6E10 antibody (1:500, Covance, Princeton, N.J.), as described (Nogalska et al., 2010a). Blots were developed using anti-rabbit or anti-mouse WesternBreeze chemiluminescence kits (Invitrogen). Protein loading was evaluated by the actin band (1:600, C-2, Santa Cruz Biotechnology). Quantification of the immunoreactivity was performed by densitometric analysis using NIH Image J 1.310 software.

[2] = cited from earlier work
γ-secretase = assay: Measurement of γ-secretase activity in CHMFs; assay type: cell-based, human
Protocol: as §1
γ-secretase activity was measured as previously described (Nogalska et al., 2012). Briefly, cultures were homogenized in PBS buffer with addition of 0.05% CHAPS. The supernatants containing 50 μg of protein were added to the reaction mixture containing assay buffer (50 mM TRIS-HCl pH 6.8, 2 mM EDTA, 0.25% CHAPS). The reaction was initiated by adding a specific synthetic substrate NMA-Amyloid β-Protein (aa708-715)-Lys-(DNP) Arg-Arg-Arg-amide trifluoroacetate salt (10 μM) (Sigma-Aldrich). After overnight incubation at 37° C., the samples were centrifuged at 16,000×g for 15 minutes, supernatants were transferred to a 96-well plate and the fluorescence emission excited at 390 nm was recorded at 444 nm. Activity of γ-secretase was expressed as arbitrary fluorescence units.

LC3-II = LC3-II immunoblot with densitometric analysis in CHMFs; assay type: cell-based, human; details: for increase of LC3-II: exposure to inhibitor alone, vs control CHMFs
Protocol: as §1, §2

Cathepsin D = assay: Measurement of Cathepsin D activity in CHMF homogenates; assay type: cell-based, human; details: for reduction of Cathepsin D activity: exposure to inhibitor alone, vs control CHMFs
Protocol: as §1
Cathepsin D [EC 3.4.23.5] activity was measured utilizing a Cathepsin D Assay Kit (Sigma, St. Louis, Mo.) according to manufacturer's instructions and as previously detailed (Nogalska et al., 2010b). Homogenates were prepared in phosphate buffer-saline with addition of CHAPS (0.05%) (Sigma-Aldrich). All samples were measured in duplicate. The fluorescence emission excited at 355 nm was recorded at 405 nm every 2 minutes. Activity of cathepsin D measured in the linear phase of the reaction was expressed as fluorescence-intensity per minute.

NBR1 = NBR1 immunoblot with densitometric analysis in CHMFs; assay type: cell-based, human; details: for increase of NBR1 levels: exposure to inhibitor alone, vs control CHMFs
Protocol: as §1, §2

GFP-LC3 = GFP-LC3 puncta count (autophagosome accumulation) in CHMFs; assay type: cell-based, human
Protocol: To morphologically evaluate accumulation of autophagosomes, three different tissue-culture sets (experiments) were transduced with PremoAutophagy Sensor GFP-LC3 (Invitrogen, Carlsbad, Calif.) according to the manufacturer's instructions. 24 hours later, CHMFs were treated with chloroquine as described above. Counting of the GFP-LC3 puncta in the muscle fibers was performed on all three different culture experiments. Each experiment involved the same three different conditions: control, chloroquine-exposed, and chloroquine-exposed-plus-NaPB-treated cultures. In each experiment, each condition was composed of two cultures. For the analysis, eight random fields per condition of each culture were photographed (magnification ×40) in each of the three experiments. Overall, in each of the three conditions GFP-LC3 puncta were evaluated in more than 80 fibers, independently by two investigators (AN and CD). In addition, GFP-LC3 transduced CHMFs were also processed for immunofluorescence of NBR1 (1:100, 4BR, Santa Cruz Biotechnology, Santa Cruz, Calif.).

Aβ42 = Aβ42 ELISA in CHMFs; assay type: cell-based, human
Protocol: as §1
To quantify endogenous Aβ42 content in cultured human muscle fibers, we used the “Human β-Amyloid (1-42) ELISA kit, WAKO, High Sensitive” (WAKO Chemicals USA, Inc., Richmond, Va.) as described (Nogalska et al., 2012). Homogenates were freshly prepared in RIPA buffer containing a protease inhibitor cocktail (Roche Diagnostic, Mannheim, Germany). 100 μg of protein per well from each sample were diluted in a Standard Diluent Buffer provided in the kit, added to the assay plates in duplicate, and incubated overnight at 4° C. The ELISA was performed the next day, according to manufacturer's protocol. The absorbance was read at 450 nm.

[3] = tested on: cultured human muscle fibers (CHMFs); assay: Vacuolization of cultured human muscle fibers by phase-contrast microscopy; assay type: cell-based; details: for vacuolization of chloroquine-exposed CHMFs: chloroquine 50 μM 24 hours + NaPB 15 mM, vs chloroquine alone; for vacuolization of CHMFs after exposure to lysosomal inhibitor alone: exposure alone 24 hours, vs control CHMFs
Protocol: as §1

Aβ42 oligomers = Aβ42 oligomers immunoblot (6E10 antibody) in CHMFs; assay type: cell-based, human
Protocol: Primary cultures of normal human muscle were established as routinely performed in our laboratory (Askanas and Engel, 1992) from archived satellite cells of portions of diagnostic muscle biopsies from patients who, after all tests were performed, were considered free of muscle disease. Each experiment was performed on 3-9 different culture sets, each established from satellite cells derived from a different muscle biopsy. […]
as §2, with “Aβ42 oligomers were studied using 6E10 antibody (1:500, Covance, Princeton, N.J.), as described (Nogalska et al., 2010a). Blots were developed using anti-rabbit or anti-mouse WesternBreeze chemiluminescence kits (Invitrogen).” left out

Cathepsin B = assay: Measurement of Cathepsin B activity in CHMFs; assay type: cell-based, human; details: for reduction of Cathepsin B activity: exposure to inhibitor alone, vs control CHMFs
Protocol: as §1
Cathepsin B [EC 3.4.22.1] activity was measured as described (Nogalska et al., 2010b). Samples were measured in duplicate. All samples were incubated at 37° C. for 45 min, and the fluorescence emission excited at 355 nm was recorded at 444 nm. Activity of cathepsin B was expressed as arbitrary fluorescence units.

CHMFs = assay: Treatment of CHMFs with HDAC inhibitor compared with PB; assay type: cell-based, human; details: data not shown
[4] = bafilomycin+NaPB (15 mM) vs bafilomycin alone
[5] = chloroquine+NaPB (15 mM) vs chloroquine alone
[6] = autophagy-impaired cultures, not significantly worse than controls
[7] = bafilomycin+NaPB (15 mM) vs bafilomycin without NaPB
[8] = chloroquine alone vs control CHMFs

O=C(CCCc1ccccc1)OCC(COC(=O)CCCc1ccccc1)OC(=O)CCCc1ccccc1 [GPB, 1,2,3-Propanetriyl tris(4-phenylbutanoate)]
lowering blood ammonia [1]: as effective as NaPB

O=C([O-])CCCc1ccccc1.[Na+] [NaPB, Sodium 4-phenylbutanoate]
adverse morphologic abnormalities and muscle-fiber viability (control CHMFs): did not produce either adverse morphologic abnormalities or affect muscle-fiber viability | decrease of p62 (p62; [4]): 83% | decrease of p62 (p62; [5]): 74% | effect on p62 at lower dose (p62; chloroquine-exposed CHMFs, NaPB 5 mM): significantly decreased p62; also recorded: statistically significantly decreased | effect on protein level of p62 (p62; control CHMFs, NaPB 1-15 mM): did not exert any effect | tolerability, daily and long-term ([2]; infants, children and adults with urea-cycle disorders): usually well tolerated | tolerability in preliminary trials ([2]; patients with amyotrophic lateral sclerosis (ALS)): well-tolerated | γ-secretase activity value after NaPB treatment compared with controls (ANOVA) (γ-secretase; [6]): fully corrected | decrease of γ-secretase activity (γ-secretase; chloroquine+NaPB (15 mM) vs untreated autophagy-impaired CHMFs): 56% | decrease of LC3-II (LC3-II; [4]): 36% | decrease of LC3-II (LC3-II; [5]): 54% | effect on protein level of LC3-II (LC3-II; control CHMFs, NaPB 1-15 mM): did not exert any effect | Cathepsin D value after NaPB treatment compared with controls (ANOVA) (Cathepsin D; [6]): fully corrected | higher activity of Cathepsin D (Cathepsin D; [7]): 15% | increase of Cathepsin D activity (Cathepsin D; [5]): 40% | effect on Cathepsin D activity (Cathepsin D; control CHMFs, NaPB 1-15 mM): did not exert any effect | decrease of NBR1 (NBR1; [4]): 34% | reduction of increased NBR1 (NBR1; [5]): 63% | effect on protein level of NBR1 (NBR1; control CHMFs, NaPB 1-15 mM): did not exert any effect | decrease of number of GFP-LC3 foci (GFP-LC3; chloroquine+NaPB (15 mM) vs chloroquine-only exposed cultures): 53% | Aβ42 by ELISA value after NaPB treatment compared with controls (ANOVA) (Aβ42; [6]): fully corrected | lower amount of Aβ42 by ELISA (Aβ42; bafilomycin+NaPB (15 mM) vs bafilomycin alone, 2 culture sets, statistical significance not reached): 28% | decrease of Aβ42 by ELISA (Aβ42; [5]): 53% | vacuolization of bafilomycin-exposed CHMFs ([3]; bafilomycin 25 nM 24 hours + NaPB 15 mM, vs bafilomycin alone): nearly completely prevented their vacuolization; also recorded: morphologically prominent decrease of their vacuolization | vacuolization of chloroquine-exposed CHMFs [3]: virtually completely prevented their vacuolization | vacuolization of chloroquine-exposed CHMFs ([3]; listed as PB): prominently eliminating their vacuolization | lower amount of Aβ42 oligomers (Aβ42 oligomers; [4]): 60% | decrease of Aβ42 oligomers (Aβ42 oligomers; chloroquine+NaPB (15 mM) vs autophagy-impaired NaPB-non-treated CHMFs): 65% | effect on Cathepsin B activity in ER-stress model (Cathepsin B; ER-stress-induced CHMFs, data not shown): mitigates the reduction of Cathepsin B activity | higher activity of Cathepsin B (Cathepsin B; [7]): 40% | increase of Cathepsin B activity (Cathepsin B; [5]): 70% | effect on Cathepsin B activity (Cathepsin B; control CHMFs, NaPB 1-15 mM): did not exert any effect

CCN(CC)CCCC(C)Nc1ccnc2cc(Cl)ccc12 (centres unmarked) [chloroquine]
increase of p62 (p62): 9 fold | γ-secretase activity after inhibitor exposure (γ-secretase; [8]): significantly increased γ-secretase activity | increase of LC3-II (LC3-II): 9 fold | reduction of Cathepsin D activity (Cathepsin D): 40% | increase of NBR1 levels (NBR1): 5 fold | increase of number of GFP-LC3 foci/puncta per muscle fiber (GFP-LC3; exposure alone, vs control CHMFs): 8 fold | increase of Aβ42 by ELISA (Aβ42; [8]): 60% | vacuolization of CHMFs after exposure to lysosomal inhibitor alone [3]: induced pronounced vacuolization | reduction of Cathepsin B activity (Cathepsin B): 60%

CO/C1=C\C(C)=C\[C@@H](C)[C@@H](O)[C@@H](C)C/C(C)=C/C=C/[C@H](OC)[C@@H]([C@@H](C)[C@@H](O)[C@H](C)[C@@]2(O)C[C@@H](O)[C@H](C)[C@@H](C(C)C)O2)OC1=O [bafilomycin, bafilomycin Al]
increase of p62 (p62): 18 fold | increase of LC3-II (LC3-II): 17 fold | reduction of Cathepsin D activity (Cathepsin D): 25% | increase of NBR1 levels (NBR1): 9 fold | Aβ42 by ELISA after inhibitor exposure (Aβ42; Baf-exposed CHMFs, two separate experiments): elevated | vacuolization of CHMFs after exposure to lysosomal inhibitor alone [3]: induced pronounced vacuolization | reduction of Cathepsin B activity (Cathepsin B): 85%

CC(/C=C/C(=O)NO)=C\[C@@H](C)C(=O)c1ccc(N(C)C)cc1 [trichostatinA]
ameliorative effect compared with PB (CHMFs): did not have an effect similar to that achieved with PB
